Reference: ChEMBL document CHEMBL1134171, “Synthesis and biological activity of novel potent endothelin-converting enzyme-1 inhibitors” (Bioorg Med Chem Lett, 2001)

Experiments:
[1] = biological target: T1, Endothelin-converting enzyme 1 (Homo sapiens) (UniProt P42892); assay: In vitro inhibitory activity was tested against Endothelin converting enzyme 1 at a concentration of 1 uM
T1 sequence (whole entry): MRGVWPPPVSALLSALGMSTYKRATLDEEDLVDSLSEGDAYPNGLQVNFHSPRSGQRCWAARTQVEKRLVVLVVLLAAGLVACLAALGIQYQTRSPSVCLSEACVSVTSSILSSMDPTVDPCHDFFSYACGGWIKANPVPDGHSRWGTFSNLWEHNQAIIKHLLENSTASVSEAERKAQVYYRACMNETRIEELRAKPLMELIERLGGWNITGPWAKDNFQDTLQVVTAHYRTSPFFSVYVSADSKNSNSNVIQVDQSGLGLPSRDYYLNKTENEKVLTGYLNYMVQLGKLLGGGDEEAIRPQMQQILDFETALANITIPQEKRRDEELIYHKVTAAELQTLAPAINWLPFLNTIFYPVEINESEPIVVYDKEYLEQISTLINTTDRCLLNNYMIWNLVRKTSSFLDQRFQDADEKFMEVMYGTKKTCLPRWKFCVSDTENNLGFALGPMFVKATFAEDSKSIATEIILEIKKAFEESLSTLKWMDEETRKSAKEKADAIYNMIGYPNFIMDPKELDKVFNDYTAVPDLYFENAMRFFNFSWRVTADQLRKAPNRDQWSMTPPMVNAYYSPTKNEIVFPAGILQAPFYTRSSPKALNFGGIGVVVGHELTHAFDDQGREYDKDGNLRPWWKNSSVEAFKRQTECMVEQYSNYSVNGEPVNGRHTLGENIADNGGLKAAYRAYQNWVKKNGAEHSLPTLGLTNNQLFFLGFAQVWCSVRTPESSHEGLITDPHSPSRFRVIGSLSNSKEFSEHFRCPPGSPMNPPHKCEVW

[2] = biological target: T2, Endothelin-converting enzyme 1 (Homo sapiens, UniProt P42892); assay: In vitro inhibitory activity was tested against Endothelin converting enzyme 1
T2 sequence (P42892 whole entry): T1 sequence (whole entry)

| inhibition [1] [%] | IC50 [2] [nM] | Compound |
| --- | --- | --- |
| 22 |  | CC(C)[C@H](S)C(=O)NC1(C(=O)NC(Cc2ccc(-c3ccncc3)cc2)C(=O)O)CCCC1 (stereo partly drawn) |
| 18 |  | CC(C)[C@H](S)C(=O)NC1(C(=O)N[C@H](Cc2ccc(-c3ccccc3)cc2)C(=O)O)CCCC1 |
|  | 120 | CC(C)[C@H](S)C(=O)NC1(C(=O)NC(Cc2ccc(-c3cncnc3)cc2)C(=O)O)CCCC1 (stereo partly drawn) |
|  | 150 | CC(C)[C@H](S)C(=O)NC1(C(=O)NC(Cc2ccc(-c3cccnc3)cc2)C(=O)O)CCCC1 (stereo partly drawn) |

The remaining lines, values behind:

| Compound | inhibition [1] [%] | IC50 [2] [nM] |
| --- | --- | --- |
| CC(C)[C@H](S)C(=O)NC1(C(=O)N[C@@H](Cc2ccc(-c3ccccc3)cc2)C(=O)O)CCCC1 | 77 |  |
| CC(C)[C@H](S)C(=O)NC1(C(=O)N[C@@H](Cc2ccccc2)C(=O)O)CCCC1 | 26 |  |
| COc1cc(OC)cc(-c2ccc(CC(NC(=O)C3(NC(=O)[C@@H](S)C(C)C)CCCC3)C(=O)O)cc2)c1 (stereo partly drawn) |  | 990 |
| CC(C)[C@H](S)C(=O)NC1(C(=O)N[C@@H](Cc2ccc(-c3ccc(C(F)(F)F)cc3)cc2)C(=O)O)CCCC1 | 54 |  |
| COc1cccc(-c2ccc(CC(NC(=O)C3(NC(=O)[C@@H](S)C(C)C)CCCC3)C(=O)O)cc2)c1OC (stereo partly drawn) |  | 350 |
| CC(C)[C@H](S)C(=O)NC1(C(=O)N[C@@H](Cc2cccc(-c3ccccc3)c2)C(=O)O)CCCC1 | 39 |  |
| COc1ccc(-c2ccc(C[C@H](NC(=O)C3(NC(=O)[C@@H](S)C(C)C)CCCC3)C(=O)O)cc2)cc1 | 49 |  |
| CC(C)[C@H](S)C(=O)NC1(C(=O)N[C@@H](Cc2ccccc2-c2ccccc2)C(=O)O)CCCC1 | 0 |  |
| CC(C)[C@H](S)C(=O)NC1(C(=O)NC(Cc2ccc(-c3ccccn3)cc2)C(=O)O)CCCC1 (stereo partly drawn) |  | 220 |
